The results in this text go back to ChEMBL document CHEMBL3044841, “Synthesis and biological activities of Schiff bases of gabapentin with different aldehydes and ketones: a structureactivity relationship study” (Med Chem Res, 2012).

The test system of data set [1] is Radical scavenging activity. The data set can be described thus: Antioxidant activity assessed as DPPH free radical scavenging activity at 150 ug/ml after 30 min relative to control. Type of data set: functional.
In data set [2] the test system is Radical scavenging activity. The data set can be described thus: Antioxidant activity assessed as DPPH free radical scavenging activity at 200 ug/ml after 30 min relative to control. Type of data set: functional.
Data set [3] deals with Radical scavenging activity. The data set can be described thus: Antioxidant activity assessed as DPPH free radical scavenging activity at 100 ug/ml after 30 min relative to control. Type of data set: functional.
Data set [4] has as its system Radical scavenging activity. The data set is described as follows: Antioxidant activity assessed as DPPH free radical scavenging activity after 30 min. Type of data set: functional.
Data set [5] deals with Rattus norvegicus. The data set is described as follows: Neurotoxicity in Rattus norvegicus Wistar (rat) assessed as minimal motor impairment at 100 mg/kg, po after 2 hr by rotorod test relative to control. Type of data set: toxicity, organism-based. Further details: dose 100 mg/kg, route oral; call rule not given here. The settings on record: in vivo.
The subject of data set [6] is Rattus norvegicus. The data set is described as follows: Neurotoxicity in Rattus norvegicus Wistar (rat) assessed as minimal motor impairment at 100 mg/kg, po after 0.5 hr by rotorod test. Type of data set: toxicity, organism-based. Also noted: dose 100 mg/kg, route oral. The settings on record: in vivo.
The subject of data set [7] is Rattus norvegicus. The data set can be described thus: Neurotoxicity in Rattus norvegicus Wistar (rat) assessed as minimal motor impairment at 100 mg/kg, po after 1 hr by rotorod test. Type of data set: toxicity, organism-based. Also noted: dose 100 mg/kg, route oral. As to conditions: in vivo.
For data set [8], the system named is Rattus norvegicus. The data set can be described thus: Anticonvulsant activity in Rattus norvegicus Wistar (rat) assessed as protection against maximal electroshock-induced seizure at 100 mg/kg, po administered 30 min before electroshock measured for 2 min relative to control. Type of data set: functional.
The subject of data set [9] is Rattus norvegicus. The data set can be described thus: Neurotoxicity in Rattus norvegicus Wistar (rat) assessed as minimal motor impairment at 100 mg/kg, po after 4 hr by rotorod test. Type of data set: toxicity, organism-based. Further details: dose 100 mg/kg, route oral. As to conditions: in vivo.
Data set [10] has as its system Rattus norvegicus. The data set is described as follows: Neurotoxicity in Rattus norvegicus Wistar (rat) assessed as minimal motor impairment at 100 mg/kg, po after 2 hr by rotorod test. Also noted: dose 100 mg/kg, route oral. Type of data set: toxicity, organism-based. As to conditions: in vivo.

In brackets after ≈: the same amount, converted by molar mass.

For the compound `O=C(O)CC1(C/N=C/c2ccccc2)CCCCC1`, the results for the Activity in data set [1], in data set [2] and in [3] were 41.3%, 49.8% and 30.1%, respectively. Further, in [4], the IC50 result is listed as “Not Active”.

On to `C/C=N/CC1(CC(=O)O)CCCCC1`, for which the Activity in [1] amounted to 41%; in data set [2], 49.5%; in data set [3] it was 31.4%. In addition, the IC50 result in [4] is recorded as “Not Active”.

As for `C/C(=N\CC1(CC(=O)O)CCCCC1)c1cccc(C#N)c1`, the Activity in data set [1] is 41%; with Rattus norvegicus [5], 25%; in the data set with Rattus norvegicus [6] it was “Non-toxic”; in data set [2] it was 49.8%; in data set [3] it was 30.6%; in the data set on Rattus norvegicus [7], “Non-toxic”. The Activity in the data set with Rattus norvegicus [8] is 6.36%. The IC50 entry in [4] is “Not Active”.

Turning to `C=NCC1(CC(=O)O)CCCCC1`, the Activity in data set [1] was 40.6%; in data set [2], 48.9%; in [3] it was 30.2%. Further, the IC50 result in data set [4] was “Not Active”.

For the compound `O=C(O)CC1(C/N=C/c2c(F)cccc2Cl)CCCCC1`, the Activity in [1] was 58%; in data set [2], 69.1%; in data set [3], 47.2%. Further, in data set [4], the IC50 stood at 104 µg/mL (≈ 334 µM).

With `O=C(O)CC1(C/N=C/c2ccccc2O)CCCCC1`, the Activity in [1] stood at 60.6%; in data set [2], 71.3%; in [3] it was 51%. For the same compound, the IC50 in data set [4] was determined as 80.5 µg/mL (≈ 292 µM).

As for `CCOc1ccc(/C=N/CC2(CC(=O)O)CCCCC2)cc1`, the Activity in data set [1] amounted to 66.4%; in [2] it was 74.5%; in data set [3] it was 55.6%. The IC50 in data set [4] was found to be 60.5 µg/mL (≈ 199 µM).

As for `C/C(=N\CC1(CC(=O)O)CCCCC1)c1ccc2ccccc2c1`, the Activity in data set [1] is 37.2%; in the data set on Rattus norvegicus [5], 25%; with Rattus norvegicus [6] it was “Non-toxic”; in [2] it was 48.4%; in data set [3] it was 28.5%; with Rattus norvegicus [7], “Non-toxic”. For the same compound, the Activity with Rattus norvegicus [8] is given as 0.42%. The IC50 result in data set [4] was “Not Active”.

Consider `COc1cc(/C=N/CC2(CC(=O)O)CCCCC2)ccc1O`, for which the results for the Activity in [1], in data set [2] and in data set [3] were 64.9%, 78.2% and 57.2%, respectively. For the same compound, the IC50 in data set [4] amounted to 59.6 µg/mL (≈ 195 µM).

Take `O=C(O)CC1(C/N=C/c2ccc(F)cc2)CCCCC1`: the figures for the Activity in data set [1], in [2] and in data set [3] were 53.8%, 62.8% and 44.7%, respectively. Further, the IC50 in [4] is 130.5 µg/mL (≈ 471 µM).

As for `CCOc1ccc(/C(C)=N/CC2(CC(=O)O)CCCCC2)cc1`, the Activity in [1] is 66.7%; in the data set with Rattus norvegicus [5], 25%; with Rattus norvegicus [6] it was “Non-toxic”; in data set [2], 74.6%; in data set [3], 55.8%; in the data set with Rattus norvegicus [7] it was “Non-toxic”. Further, the Activity in the data set on Rattus norvegicus [8] came to 12.74%. In addition, the IC50 in data set [4] turned out to be 60.3 µg/mL (≈ 190 µM).

Regarding `O=C(O)CC1(C/N=C/c2ccccc2Cl)CCCCC1`, the figures for the Activity in [1], in data set [2] and in [3] were 56.7%, 66.4% and 45.1%, respectively. The IC50 in [4] amounted to 119.4 µg/mL (≈ 406 µM).

Consider `O=C(O)CC1(C/N=C/c2ccccn2)CCCCC1`, for which the Activity in [1] amounted to 50.3%; in data set [2], 59.7%; in data set [3] it was 40%. Moreover, the IC50 in data set [4] came to 151.2 µg/mL (≈ 581 µM).

For the compound `COc1ccc(/C=N/CC2(CC(=O)O)CCCCC2)cc1`, the Activity in data set [1] came to 59.8%; in data set [2], 69.5%; in data set [3] it was 49.6%. Besides, the IC50 in data set [4] came out at 94.2 µg/mL (≈ 326 µM).

On to `O=C1NC(=O)C(c2ccccc2)(c2ccccc2)N1` [PHENYTOIN], for which the Activity result is listed as “Non-toxic” in the data set with Rattus norvegicus [6] and 79.29% in the data set on Rattus norvegicus [8].

Regarding `O=C1O[C@H]([C@@H](O)CO)C(O)=C1O` [ASCORBIC ACID], the Activity in [1] came out at 86.4%; in [2], 99.3%; in [3], 74.1%. Further, the IC50 in [4] is 8.6 µg/mL (≈ 48.8 µM).

For the compound `C/C(=N\CC1(CC(=O)O)CCCCC1)c1cccnc1`, the Activity result in the data set with Rattus norvegicus [9] is “Non-toxic”; in [1], 42.1%; in the data set with Rattus norvegicus [6] it was “Non-toxic”; in data set [2], 51%; in [3], 30.8%; in the data set with Rattus norvegicus [7], “Non-toxic”. For the same compound, the Activity result is “Non-toxic” in the data set with Rattus norvegicus [10] and 65.61% with Rattus norvegicus [8]. Besides, the IC50 in [4] was 198.2 µg/mL (≈ 722 µM).

Consider `C/C(=N\CC1(CC(=O)O)CCCCC1)c1ccccn1`, for which the Activity entry with Rattus norvegicus [9] is “Non-toxic”; in data set [1] it was 42.5%; with Rattus norvegicus [6] it was “Non-toxic”; in data set [2], 51.6%; in data set [3], 31.1%; with Rattus norvegicus [7], “Non-toxic”. Moreover, the Activity entry is reported as “Non-toxic” in the data set with Rattus norvegicus [10] and 66.45% with Rattus norvegicus [8]. For the same compound, in data set [4], the IC50 was 194.8 µg/mL (≈ 710 µM).

Take `C/C(=N\CC1(CC(=O)O)CCCCC1)c1c[nH]c2ccccc12`: the Activity is 43.8% in data set [1]; 25% in the data set with Rattus norvegicus [5]; “Non-toxic” in the data set with Rattus norvegicus [6]; 55.8% in data set [2]; 32.7% in data set [3]; “Non-toxic” in the data set with Rattus norvegicus [7]. The Activity entry in the data set with Rattus norvegicus [10] is given as “Non-toxic”; in the data set on Rattus norvegicus [8] it was 24.63%. The IC50 in data set [4] was 175 µg/mL (≈ 560 µM).
